Data on 18 compounds can be found in ChEMBL document CHEMBL4339211 (Bioorg Med Chem, 2019).

Type in all cases: functional, cell-based
The target of assay [1] is T1, D(1A) dopamine receptor (Homo sapiens, UniProt P21728). Description: Antagonist activity at D1 receptor (unknown origin) expressed in CHOK1 cells assessed as inhibition of SKF38393-induced cAMP accumulation measured after 30 mins. For orientation: Changes in cAMP serve as a functional read-out for many G protein-coupled receptors.
Assay [2] addresses T2, D(2) dopamine receptor (Homo sapiens, UniProt P14416). Description: Agonist activity at D2 receptor (unknown origin) expressed in CHOK1 cells assessed as increase in calcium flux at 10 uM incubated for 60 mins at 37 degC followed by 15 mins incubation under room temperature measured after 20 secs for 100 secs by calcium-4 dye based FLIPR assay relative to control. For orientation: Calcium flux is commonly read through the fluorescence of an indicator in the cells.

In assay [3] the target is T1, D(1A) dopamine receptor. The assay is described as follows: Agonist activity at D1 receptor (unknown origin) expressed in CHOK1 cells assessed as increase in cAMP accumulation at 10 uM measured after 30 mins.
For assay [4], the target named is T2, D(2) dopamine receptor. The assay is described as follows: Antagonist activity at D2 receptor (unknown origin) expressed in CHOK1 cells assessed as inhibition of dopamine-induced calcium flux preincubated for 60 mins at 37 degC followed by 15 mins incubation under room temperature and subsequent dopamine addition measured after 20 secs for 100 secs by calcium-4 dye based FLIPR assay.

T1 sequence (P21728 whole entry): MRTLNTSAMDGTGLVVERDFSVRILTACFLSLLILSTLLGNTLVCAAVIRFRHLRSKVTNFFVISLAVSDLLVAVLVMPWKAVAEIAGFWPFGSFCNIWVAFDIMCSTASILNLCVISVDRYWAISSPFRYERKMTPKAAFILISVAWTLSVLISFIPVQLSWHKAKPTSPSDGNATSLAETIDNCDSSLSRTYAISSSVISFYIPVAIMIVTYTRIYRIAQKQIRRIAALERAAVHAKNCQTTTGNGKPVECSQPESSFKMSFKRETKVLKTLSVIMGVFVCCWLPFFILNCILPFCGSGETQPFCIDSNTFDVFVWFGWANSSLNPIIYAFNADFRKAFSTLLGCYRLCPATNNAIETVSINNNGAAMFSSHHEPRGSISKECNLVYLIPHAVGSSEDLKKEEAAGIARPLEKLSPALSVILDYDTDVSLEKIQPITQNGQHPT
T2 sequence (P14416 whole entry): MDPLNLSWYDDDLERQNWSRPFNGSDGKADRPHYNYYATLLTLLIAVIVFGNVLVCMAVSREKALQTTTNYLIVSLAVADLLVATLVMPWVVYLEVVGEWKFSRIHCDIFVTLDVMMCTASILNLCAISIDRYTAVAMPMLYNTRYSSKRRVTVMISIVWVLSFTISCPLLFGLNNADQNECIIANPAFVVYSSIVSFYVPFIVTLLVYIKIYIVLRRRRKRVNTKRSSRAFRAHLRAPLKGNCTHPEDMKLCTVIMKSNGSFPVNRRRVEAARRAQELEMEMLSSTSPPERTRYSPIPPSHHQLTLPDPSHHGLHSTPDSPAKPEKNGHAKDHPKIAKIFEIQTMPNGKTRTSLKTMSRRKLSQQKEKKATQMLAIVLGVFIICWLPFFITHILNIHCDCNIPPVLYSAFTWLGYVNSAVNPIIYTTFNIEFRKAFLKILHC

As for `Oc1ccc2c(c1)CN1CCc3cc4c(cc3C1C2)OCO4` (racemic), the IC50 in assay [1] stood at 1420 nM; in assay [4], 500 nM. The Activity in assay [2] was 2.17%; in assay [3], -4.41%.
On the same counts, the results for `COc1ccc2c(c1O)CN1CCc3cc(O)c(O)cc3C1C2` (racemic) are 390 nM, 76 nM, 4.27% and -5.41%.
Taken in the same sequence, the figures for `COc1cc2c(cc1O)CC1c3cc(OC)c(OC)cc3CCN1C2` (racemic) were 670 nM, 2590 nM, 3.35% and -5.16%.
As to `Oc1cccc2c1CC1c3cc4c(cc3CCN1C2)OCO4` (racemic), the IC50 was 1030 nM in assay [1] and 190 nM in assay [4]. The Activity worked out at 2.22% in assay [2] and 1.8% in assay [3].
Taken in the same sequence, the figures for `c1ccc(COc2cccc3c2CC2c4cc5c(cc4CCN2C3)OCO5)cc1` (racemic) were greater than 10000 nM, greater than 10000 nM, 2.5% and 4.48%.
As for `COc1ccc2c(c1O[C@@H]1O[C@H](CO)[C@@H](O)[C@H](O)[C@H]1O)CN1CCc3cc4c(cc3[C@H]1C2)OCO4`, the IC50 in assay [1] and in assay [4] was greater than 10000 nM throughout. Also, the Activity in assay [2] was 3.17%; in assay [3], -7.46%.
Consider `COc1ccc2c(c1OC(C)=O)CN1CCc3cc4c(cc3C1C2)OCO4` (racemic), for which the values for the IC50 in assay [1] and in assay [4] were 1080 nM and 420 nM, respectively. In addition, the Activity in assay [2] was found to be 4.5%; in assay [3], 0%.
Taken in the same sequence, the figures for `COc1cc2c(cc1OC)C1Cc3c(cc(O)c(OC)c3OC)CN1CC2` (racemic) were greater than 10000 nM, 8810 nM, 6.88% and 5.95%.
Taken in the same sequence, the figures for `COc1ccc2c(c1O[C@@H]1O[C@H](CO)[C@@H](O)[C@H](O)[C@H]1O)CN1CCc3cc4c(cc3[C@@H]1C2)OCO4` were greater than 10000 nM, greater than 10000 nM, 2.96% and -1.05%.
On the same counts, the results for `COc1cc2c(cc1OC)C1Cc3c(cc(OC)c(O)c3OC)CN1CC2` (racemic) are greater than 10000 nM, 6360 nM, 3.74% and -4.17%.
With `COc1cc2c(cc1OC)C1Cc3ccc(OC)c(O)c3CN1CC2` (racemic), the IC50 came out at 410 nM in assay [1] and 3110 nM in assay [4]. Further, the values for the Activity in assay [2] and in assay [3] were 5.52% and -4.32%, respectively.
On the same counts, the results for `COc1cc(/C=C/C(=O)Oc2c(OC)ccc3c2CN2CCc4cc5c(cc4C2C3)OCO5)ccc1OC(C)=O` (racemic) are greater than 10000 nM, 7960 nM, 2.97% and -3.69%.
Taken in the same sequence, the figures for `COc1cc2c(cc1O)CC1c3cc4c(cc3CCN1C2)OCO4` (racemic) were greater than 10000 nM, 4940 nM, 3.81% and -3.7%.
Taken in the same sequence, the figures for `COc1cc2c(c(OC)c1O)CC1c3cc4c(cc3CCN1C2)OCO4` (racemic) were 7420 nM, 1080 nM, 1.29% and -5.75%.
In the case of `COc1ccc2c(c1OC)CN1CCc3cc(O)c(O)cc3C1C2` (racemic), the IC50 turned out to be 630 nM in assay [1] and 40 nM in assay [4]. In addition, the Activity in assay [2] is 2.53%; in assay [3], -3.17%.
For the compound `COc1cc2c(cc1OC)[C@@H]1Cc3ccc(OC)c(OC)c3CN1CC2` [TETRAHYDROPALMATINE], the IC50 amounted to 1630 nM in assay [1] and 450 nM in assay [4]. Besides, the results for the Activity in assay [2] and in assay [3] were 3.51% and -7.43%, respectively.
For `COc1cc2c(cc1O)C1Cc3cc(OC)c(OC)cc3CN1CC2` (racemic), the figures for the IC50 in assay [1] and in assay [4] were greater than 10000 nM and 3580 nM, respectively. In addition, the Activity in assay [2] was found to be 3.67%; in assay [3] it was 24.4%.
On the same counts, the results for `COc1cc2c(cc1OC)C1Cc3ccc(O)cc3CN1CC2` (racemic) are 6510 nM, 1530 nM, 2.39% and -3.91%.

Usually IC50 stands for the concentration that gives 50% inhibition.
